Legend:
Mus musculus = assay: Anti-diabesity activity against high fat diet-induced DIO C57BL/6 mouse model assessed as decrease in body weight at 25 nmol/kg, sc administered for 2 weeks; format: functional; conditions: C57BL/6, 336 h, time 14 day
[1] = Pancreatic insult activity in db/db mouse assessed as increase in lipase level in serum at 25 nmol/kg, sc administered every 2 days for 12 weeks; format: toxicity, organism-based; conditions: in vivo, 2016 h
[2] = Pancreatic insult activity in db/db mouse assessed as increase in amylase level in serum at 25 nmol/kg, sc administered every 2 days for 12 weeks; format: toxicity, organism-based; conditions: in vivo, 2016 h

| Compound | inhibition in vivo at 0.025 µmol/kg (Mus musculus) [%] | Activity [1] | Activity [2] |
| --- | --- | --- | --- |
| CCCCCCCCCCCCCCCC(=O)N[C@@H](CCC(=O)NCCCC[C@H](NC(=O)[C@H](C)NC(=O)[C@H](C)NC(=O)[C@H](CCC(N)=O)NC(=O)CNC(=O)[C@H](CCC(=O)O)NC(=O)[C@H](CC(C)C)NC(=O)[C@H](Cc1ccc(O)cc1)NC(=O)[C@H](CO)NC(=O)[C@H](CO)NC(=O)[C@@H](NC(=O)[C@H](CC(=O)O)NC(=O)[C@H](CO)NC(=O)[C@@H](NC(=O)[C@H](Cc1ccccc1)NC(=O)[C@@H](NC(=O)CNC(=O)[C@H](CCC(=O)O)NC(=O)[C@H](C)NC(=O)[C@@H](N)Cc1cnc[nH]1)[C@@H](C)O)[C@@H](C)O)C(C)C)C(=O)N[C@@H](CCC(=O)O)C(=O)N[C@@H](Cc1ccccc1)C(=O)N[C@H](C(=O)N[C@@H](C)C(=O)N[C@@H](Cc1c[nH]c2ccccc12)C(=O)N[C@@H](CC(C)C)C(=O)N[C@H](C(=O)N[C@@H](CCCNC(=N)N)C(=O)NCC(=O)N[C@@H](CCCNC(=N)N)C(=O)NCC(=O)O)C(C)C)[C@@H](C)CC)C(=O)O [LIRAGLUTIDE] | 9.8 |  |  |
| SEMAGLUTIDE |  | Toxic | Toxic |
